Experimental data as given in US8198268B2, “Tianeptine sulfate salt forms and methods of making and using the same” (Janssen Biotech, Inc., priority 2008, dated 2012).

Test system: mouse
Assay: Behavioral despair test in mouse (forced swim test), IP administration
[1] = STUDY A, 150 mg/kg i.p. 30 min prior to testing, hemisulfate monohydrate, 150 mg/kg
[2] = STUDY A, 150 mg/kg i.p. 30 min prior to testing, 150 mg/kg

SMILES: CN(C)CCCN1c2ccccc2CCc2ccccc21 [Imipramine, reference compound]
- Duration of Immobility mean ± s.e.m. (STUDY A, 32 mg/kg i.p. 30 min prior to testing): 64.1 ± 16.1 s
- Duration of Immobility % change from control (STUDY A, 32 mg/kg i.p. 30 min prior to testing, 32 mg/kg): −68%
- Duration of Immobility % change from control (STUDY A, 32 mg/kg i.p. 30 min prior to testing, listed as imipramine hydrochloride, 32 mg/kg): −68%
- Duration of Immobility % change from control (STUDY B, 32 mg/kg i.p. 30 min prior to testing, 32 mg/kg): −88%
- Duration of Immobility % change from control (STUDY B, 32 mg/kg i.p. 30 min prior to testing, listed as imipramine hydrochloride, 32 mg/kg): −88%

SMILES: CN1c2ccccc2C(NCCCCCCC(=O)O)c2ccc(Cl)cc2S1(=O)=O (stereo not shown) [tianeptine hemisulfate monohydrate, 7-[(3-chloro-6,11-dihydro-6-methyldibenzo[c,f][1,2]thiazepin-11-yl)amino]heptanoic acid S,S-dioxide hemisulfate monohydrate]
- Duration of Immobility mean ± s.e.m. (STUDY A, 100 mg/kg i.p. 30 min prior to testing): 83.1 ± 21.2 s
- Duration of Immobility % change from control (STUDY A, 100 mg/kg i.p. 30 min prior to testing, hemisulfate monohydrate, 100 mg/kg): −59%
- Duration of Immobility % change from control [1]: −43%
- Duration of Immobility mean ± s.e.m. [1]: 115.5 ± 13.6 s
- Duration of Immobility mean ± s.e.m. (STUDY A, 200 mg/kg i.p. 30 min prior to testing): 108.8 ± 19.8 s
- Duration of Immobility % change from control (STUDY A, 200 mg/kg i.p. 30 min prior to testing, hemisulfate monohydrate, 200 mg/kg): −46%
- abnormal behavior prior to the test (STUDY B, 30 mg/kg and 60 mg/kg i.p.): abnormal behavior (including Straub tail and circling) was observed in all ten mice
- Duration of Immobility mean ± s.e.m. (STUDY B, 30 mg/kg i.p. 30 min prior to testing): 25.8 ± 8.7 s
- Duration of Immobility % change from control (STUDY B, 30 mg/kg i.p. 30 min prior to testing, hemisulfate monohydrate, 30 mg/kg): −86%
- Duration of Immobility mean ± s.e.m. (STUDY B, 60 mg/kg i.p. 30 min prior to testing): 29.7 ± 9.7 s
- Duration of Immobility % change from control (STUDY B, 60 mg/kg i.p. 30 min prior to testing, hemisulfate monohydrate, 60 mg/kg): −83%
- conclusion of STUDIES A and B (dose-range 30 mg/kg-200 mg/kg i.p.): antidepressant-like activity

SMILES: CN1c2ccccc2C(NCCCCCCC(=O)O)c2ccc(Cl)cc2S1(=O)=O (stereo not shown) [tianeptine sodium, reference compound]
- Duration of Immobility % change from control [2]: −50%
- Duration of Immobility mean ± s.e.m. [2]: 102.0 ± 13.0 s
